Our source for the IC50 values is ChEMBL document CHEMBL4825743, “Novel Substituted Heterocyclic and Heteroaryl Compounds for Treating Huntington's Disease” (ACS Med Chem Lett, 2021).

The assay addresses Huntingtin (Homo sapiens, UniProt P42858). Nature of the assay: Inhibition of Huntingtin protein (unknown origin) incubated for overnight in presence of MW1/MAB2166 monoclonal antibody by ELISA-based MSD electrochemiluminescence assay.

Sequence of Huntingtin (P42858 whole entry): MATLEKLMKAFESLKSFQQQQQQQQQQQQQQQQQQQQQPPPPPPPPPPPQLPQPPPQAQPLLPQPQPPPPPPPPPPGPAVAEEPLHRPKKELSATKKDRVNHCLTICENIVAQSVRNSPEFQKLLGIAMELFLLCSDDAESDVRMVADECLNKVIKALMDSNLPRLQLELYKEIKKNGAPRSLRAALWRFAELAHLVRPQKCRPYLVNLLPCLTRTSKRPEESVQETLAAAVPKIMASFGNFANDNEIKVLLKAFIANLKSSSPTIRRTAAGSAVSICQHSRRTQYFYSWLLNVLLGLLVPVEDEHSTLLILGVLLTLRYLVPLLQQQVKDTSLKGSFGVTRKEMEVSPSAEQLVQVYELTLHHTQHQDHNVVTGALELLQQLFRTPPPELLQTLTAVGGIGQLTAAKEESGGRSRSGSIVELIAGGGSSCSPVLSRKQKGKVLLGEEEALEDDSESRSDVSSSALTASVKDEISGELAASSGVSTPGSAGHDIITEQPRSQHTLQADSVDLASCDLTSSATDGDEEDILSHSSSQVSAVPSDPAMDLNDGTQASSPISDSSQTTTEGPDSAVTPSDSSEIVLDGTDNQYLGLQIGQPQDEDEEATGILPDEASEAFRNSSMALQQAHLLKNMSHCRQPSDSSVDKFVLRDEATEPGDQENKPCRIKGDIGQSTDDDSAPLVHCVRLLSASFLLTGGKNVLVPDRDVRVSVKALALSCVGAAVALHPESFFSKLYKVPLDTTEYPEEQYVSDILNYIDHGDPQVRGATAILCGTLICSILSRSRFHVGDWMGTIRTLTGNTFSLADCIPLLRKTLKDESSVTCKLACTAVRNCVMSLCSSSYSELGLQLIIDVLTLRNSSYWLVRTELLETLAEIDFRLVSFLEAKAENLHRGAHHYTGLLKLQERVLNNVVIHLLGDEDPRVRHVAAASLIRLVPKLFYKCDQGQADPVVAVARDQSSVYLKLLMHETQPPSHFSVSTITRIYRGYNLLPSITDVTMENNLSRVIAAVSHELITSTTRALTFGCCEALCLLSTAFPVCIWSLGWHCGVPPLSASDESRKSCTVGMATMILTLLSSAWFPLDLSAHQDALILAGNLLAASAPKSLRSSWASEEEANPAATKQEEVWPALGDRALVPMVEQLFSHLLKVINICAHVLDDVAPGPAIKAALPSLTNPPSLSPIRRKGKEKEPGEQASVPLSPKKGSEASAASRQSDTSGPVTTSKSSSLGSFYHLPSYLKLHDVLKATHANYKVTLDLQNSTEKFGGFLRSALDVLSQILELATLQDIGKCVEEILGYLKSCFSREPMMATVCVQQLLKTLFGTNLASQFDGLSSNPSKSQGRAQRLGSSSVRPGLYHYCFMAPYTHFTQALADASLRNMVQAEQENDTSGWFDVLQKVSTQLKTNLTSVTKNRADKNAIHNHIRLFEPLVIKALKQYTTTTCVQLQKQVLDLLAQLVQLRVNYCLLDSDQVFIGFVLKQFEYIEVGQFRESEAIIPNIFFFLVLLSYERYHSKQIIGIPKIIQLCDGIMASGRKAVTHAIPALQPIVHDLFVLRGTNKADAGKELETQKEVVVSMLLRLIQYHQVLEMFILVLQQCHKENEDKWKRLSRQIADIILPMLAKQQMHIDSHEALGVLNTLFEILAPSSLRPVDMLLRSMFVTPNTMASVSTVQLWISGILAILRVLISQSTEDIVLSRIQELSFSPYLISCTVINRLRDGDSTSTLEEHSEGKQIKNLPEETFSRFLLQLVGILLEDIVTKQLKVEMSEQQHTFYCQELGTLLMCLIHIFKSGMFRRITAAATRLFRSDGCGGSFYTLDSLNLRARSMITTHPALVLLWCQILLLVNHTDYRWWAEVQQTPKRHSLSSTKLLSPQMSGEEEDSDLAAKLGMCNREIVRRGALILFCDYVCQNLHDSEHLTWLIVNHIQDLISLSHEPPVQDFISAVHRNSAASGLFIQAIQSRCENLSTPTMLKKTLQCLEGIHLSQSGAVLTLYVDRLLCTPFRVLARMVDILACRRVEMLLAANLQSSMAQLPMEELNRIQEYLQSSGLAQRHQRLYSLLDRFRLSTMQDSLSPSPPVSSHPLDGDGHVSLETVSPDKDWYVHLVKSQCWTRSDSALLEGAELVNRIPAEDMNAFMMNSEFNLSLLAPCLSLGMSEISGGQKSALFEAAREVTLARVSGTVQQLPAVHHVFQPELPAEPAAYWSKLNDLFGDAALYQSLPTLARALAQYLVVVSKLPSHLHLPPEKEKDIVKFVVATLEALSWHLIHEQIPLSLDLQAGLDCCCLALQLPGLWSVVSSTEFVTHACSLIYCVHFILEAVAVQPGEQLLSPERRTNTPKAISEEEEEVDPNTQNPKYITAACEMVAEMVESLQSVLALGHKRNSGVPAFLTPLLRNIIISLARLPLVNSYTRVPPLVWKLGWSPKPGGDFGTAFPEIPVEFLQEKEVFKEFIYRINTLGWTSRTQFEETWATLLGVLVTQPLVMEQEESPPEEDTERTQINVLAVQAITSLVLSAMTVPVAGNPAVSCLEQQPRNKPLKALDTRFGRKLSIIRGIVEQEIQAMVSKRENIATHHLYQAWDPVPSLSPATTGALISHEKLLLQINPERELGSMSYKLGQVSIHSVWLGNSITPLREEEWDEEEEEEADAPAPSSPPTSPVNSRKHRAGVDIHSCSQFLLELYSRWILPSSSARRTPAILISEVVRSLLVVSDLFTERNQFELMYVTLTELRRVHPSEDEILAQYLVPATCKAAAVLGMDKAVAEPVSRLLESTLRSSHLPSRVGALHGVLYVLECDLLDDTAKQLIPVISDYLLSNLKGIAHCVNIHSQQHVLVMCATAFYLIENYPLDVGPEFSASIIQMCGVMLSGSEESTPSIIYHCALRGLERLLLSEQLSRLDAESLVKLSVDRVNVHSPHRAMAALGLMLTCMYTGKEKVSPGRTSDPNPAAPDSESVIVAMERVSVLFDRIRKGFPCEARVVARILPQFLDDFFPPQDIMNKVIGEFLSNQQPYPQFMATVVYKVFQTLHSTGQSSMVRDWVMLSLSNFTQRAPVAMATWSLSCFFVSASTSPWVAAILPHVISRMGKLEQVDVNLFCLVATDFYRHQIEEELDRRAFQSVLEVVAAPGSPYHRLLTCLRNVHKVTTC

With `CC1(C)CC(n2nnc3cc(-c4ccc(-c5ncco5)cc4O)nnc32)CC(C)(C)N1`, the concentration for half-maximal inhibition (IC50) is at most 100 nM.
As for `COc1ncnc(-c2ccc(-c3cc4nnn(C5CC(C)(C)NC(C)(C)C5)c4nn3)c(O)c2)n1`, the figure is at most 100 nM; as for `CC1(C)C=C(c2csc3cc(-c4ccc(-c5cn[nH]c5)cc4O)nnc23)CC(C)(C)N1`, at most 100 nM; as for `CC1(C)CC(n2nnc3cc(-c4ccc(-c5nncs5)cc4O)nnc32)CC(C)(C)N1`, at most 100 nM.
As for `CC1(C)CC(n2nnc3cc(-c4ccc(-c5nccs5)cc4O)nnc32)CC(C)(C)N1`, the figure is at most 100 nM.
The same measure for `CC1(C)CC(n2nnc3cc(-c4ccc(-n5nccn5)cc4O)nnc32)CC(C)(C)N1` [VOTOPLAM]: at most 100 nM.
